Measurements from patent EP2792360A1, “(1aR,12bS)-8-cyclohexyl-11-fluoro-N-((1-methylcyclopropyl)sulfonyl)-1a-((3-methyl-3,8-diazabicyclo[3.2.1]oct-8-yl)carbonyl)-1,1a,2,2b-tetrahydrocyclopropa[d]indolo[2,1-a][2]benzazepine-5-carboxamide for use in treating HCV” (IP Gesellschaft für Management mbH, priority 2013, dated 2014).

What was measured:
[1] = in vitro dissolution of micronized powders in SGF and FeSSIF (miniaturized, non-sink); type: physicochemical
Description: Example 28: in vitro Dissolution Results: The in vitro dissolution studies performed in this work were conducted in a miniaturized system with 100 mL dissolution medium per experiment. […] Simulated gastric fluid (SGF) was prepared with 2 g/L NaCl and 1 g/L Triton® X-100 in 0.1 N HCl. The resulting measured pH of SGF was 1.2. Simulated fed state intestinal fluid (FeSSIF) was prepared as previously reported in […]. et al. (Pharm. Res. […] Oral absorption of a drug compound from a solid dosage form is dependent on dissolution rate and solubility. […] Figure 21 of WO/2013/057124presents the dissolution profiles measured in simulated gastric fluid (SGF) and Figure 22 of WO/2013/057124shows the dissolution profiles in simulated fed state intestinal fluid (FeSSIF). […] Changes of pH values in the dissolution test samples taken at different time points were not observed. The ranking of the different solid forms with respect to dissolution speed and maximum drug concentration achieved was identical in both media. The differences in the dissolution profiles in SGF and FeSSIF can be explained by the different composition of the two media since the dissolution generally depends on a variety of factors such as pH, surfactant, buffer capacity, ionic strength, etc. […]

physchem = assay: physchem
Description: Anal. Chem. Instrum. […] Drug Delivery Rev. […] The binding constant (K) of the gamma-CD inclusion complex ({drug4g}) was calculated from the initial straight line portion of the phase solubility diagram by linear regression, according to the following equation [T. Higuchi et al., Adv. Anal. Chem. Instrum.

[2] = Hygroscopicity of solid forms of compound of formula (IV) (Ph. Eur. classification); type: physicochemical
Description: For the thermogravimetric analyses, approx. 5 - 10 mg of sample were placed in aluminum pans, accurately weighed and hermetically closed with perforation lids. […] The samples were then heated under a flow of nitrogen of about 50 mL/min using a heating rate of 5 K/min. The term "micronization" denotes a process whereby the particle size of a solid material is diminished to a d50 value of less than IOµm by the aid of a suitable method, such as milling, bashing or grinding. […] The term "anti-solvent crystallization" denotes a process wherein supers aturation and as a result thereof crystallisation is achieved by addition of an antisolvent to the product solution. The term "ambient conditions" denotes conditions as experienced in a standard laboratory, e.g. atmospheric pressure, air, ambient temperature between 18 °C and 28 °C, humidity between 30 %rH and 80 %rH. The term "hygroscopicity" describes the ability of a solid material to adsorb moisture. The hygroscopicity of a given API is characterized [European Pharmacopoeia - 6th Edition (2008), Chapter 5.11) by the increase in mass when the relative humidity is raised from 0 %rH to 90 %rH: o non-hygroscopic: weight increase Am < 0.2%; o slightly hygroscopic: weight increase 0.2% < Am < 2.0%; o hygroscopic: weight increase 2.0% < Am < 15.0%; o very hygroscopic: weight increase Am > 15.0%; o deliquescent: sufficient water is adsorbed to form a liquid. The IUPAC lamda convention (W.H. Powell, Pure & Appl. Chem. […] The bonding number "n" of a heteroatom is the sum of the total number of valence bonds to adjacent atoms, if any, and the number of attached hydrogen atoms. The bonding number of a heteroatom is standard when it has the value given in the following table: n=4: C, Si, Ge, Sn, Pb; n=3 B, N, P, As, Sb, Bi, n=2: O, S, Se, Te, Po; n=l; F, CI, Br, I, At. A nonstandard bonding number of a (neutral) heteroatom is indicated by the symbol "λη", where "n" is the bonding number. […]

[3] = Solid form stability of forms of compound of formula (IV) (Temperature / Humidity Controlled XRPD, storage, suspension); type: physicochemical
[4] = Stability experiment for polymorph Form A of Compound 1 (stability chamber); type: physicochemical; conditions: 40 °C for 30 days
Description: CHARACTERIZATION EXAMPLE 13 - Stability Experiment for Polymorph Form A ({drug1a}) of Compound 1 (drug 1): The physical stability of Form A ({drug1a}) of Compound 1 (drug 1) was determined as follows. Compound 1 (drug 1) prepared according to Preparation Example 3 was analyzed by pXRD, DSC, HPLC and 1H-NMR and found to be of pure crystal Form A ({drug1a}) of 99.9 % purity (by HPLC peak area at 230 nm detection wavelength). An aliquot of the sample (3.0 g) was placed in a primary polyethylene bag, the primary bag was flushed with nitrogen gas and sealed. The primary polyethylene bag was then placed in a secondary polyethylene bag which was again flushed with nitrogen gas and a silica gel sachet was placed between the inner and the outer bag. The double bagged material was then placed in a triple laminated aluminum pouch and placed in a stability chamber at 40 °C for 30 days. Analysis by HPLC and 1H-NMR of the resulting material indicated pure Form A ({drug1a}) of Compound 1 (drug 1) of 99.9 % purity (by HPLC peak area at 230 nm). […] The triclinic cell parameters were determined to be: a = 14.835(7) A, b = 15.216(8) A, c = 18.790(10) A, alpha = 90.306(7) °, beta = 93.619(7) °, gamma = 1 13.045(7) °, volume = 3893(3) A3. The space group was determined to be P-1. The molecular weight was 468.23 giving a calculated density of 1.598g/cm3, and µ(Mo) = 0.50mm"1 for Z = 8. […]

[5] = Relative stability (non-competitive and competitive interconversion) experiments of crystal forms of Compound 1
Description: For the non-competitive experiments, only a single starting crystal form was used to study the potential conversion to another more stabb form. […] The slurry was cooled to 25-30 °C, filtered, suction dried for 1 hour and dried in a vacuum oven at 70 °C and 8 kPa absolute pressure for 12 hours. […] The slurry was cooled to 25-30 °C, filtered, suction dried for 1 hour and dried in a vacuum oven at 70 °C and 8 kPa absolute pressure for 12 hours. […] The slurry was cooled to 25-30 °C, filtered, suction dried for 1 hour and dried in a vacuum oven at 70 °C and 8 kPa absolute pressure for 12 hours.

Cc1onc(-c2ccc(F)cc2)c1COc1ccc(C(=O)N2CCS(=O)(=O)CC2)cn1 [gamma-CD inclusion complex ({drug4g}), (1,1-dioxo-1lambda6-thiomorpholin-4-yl)-{6-[3-(4-fluoro-phenyl)-5-methyl-isoxazol-4-ylmethoxy]-pyridin-3-yl]-methanone]
initial concentration achieved in dissolution ([1]; SGF and FeSSIF, room temperature, dropped in the first 60 min to a level comparable to polymorph C): much higher initial concentration
binding constant (K) (physchem): 510.4 M⁻¹

Cc1onc(-c2ccc(F)cc2)c1COc1ccc(C(=O)N2CCS(=O)(=O)CC2)cn1 [Form C ({drug4c}), (1,1-dioxo-1lambda6-thiomorpholin-4-yl)-{6-[3-(4-fluoro-phenyl)-5-methyl-isoxazol-4-ylmethoxy]-pyridin-3-yl]-methanone]
solubility in simulated gastric fluid (SGF) [1]: considerably improved as compared to Form B
hygroscopicity relative to Form A [2]: less hygroscopic than Form A
behaviour in the presence of water in suspended state [3]: transforms into Form B
thermodynamic stability of the solid form [3]: most stable polymorph overall
phase change upon storage at 100 rH at ambient temperature ([3]; Form C: prolonged period, e.g. 30 days): does not induce this phase change
solid form changes at elevated temperature ([3]; Temperature Controlled XRPD): do not show solid form changes

COc1ccc(Cl)c(S(=O)(=O)NC(=O)c2cn3cc(C(F)(F)F)cc(Cl)c3n2)c1 [Form A ({drug1a}), 8-chloro-N-[(2-chloro-5-methoxyphenyl)sulfonyl]-6-(trifluoromethyl)-imidazo[1,2-a]pyridine-2-carboxamide]
crystal form by pXRD and DSC after storage [4]: pure polymorphForm A
purity (by HPLC peak area at 230 nm) after storage ([4]; double polyethylene bags under nitrogen in aluminum pouch, 99.9 % before storage): 99.9%
crystal form of the resulting material ([5]; non-competitive, refluxed in deionized water at about 95 °C for 3 hours, pXRD, DSC, TGA, 1H-NMR): remained unchanged
relative thermodynamic stability of polymorph form ([5]; water heated to 95 °C or methanol heated to 55 °C): most thermodynamically stable polymorph form
